Results on two compounds are retold here after patent publication US12466824B2, “Stable polymorphic form of 6-fluoro-9-methyl-9H-β-carboline and uses thereof” (AudioCure Pharma GmbH, priority 2019, dated 2025).

Molecules are shown by their SMILES. “Also recorded” adds a separate entry of the source.

The test system of data set [1] is noise induced hearing loss model (NIHL) in guinea pigs. As to the kind of experiment: Noise induced hearing loss (NIHL) guinea pig model, intratympanic application, PTS by BERA. The class given is in vivo. The settings on record: single intratympanic 0.12 mg; for level of improvement of the PTS: across investigated frequencies (FIG. 13 / FIG. 14). As to the method: The effect of an intratympanic administration of polymorph A of 6-FMC (0.12 mg) prepared freshly (less than 24 h before use) on the Permanent Threshold Shift has been investigated in guinea pigs (FIG. 13). The Permanent Threshold Shift (PTS) is defined as the difference between the post-traumatic hearing threshold measured on day 14 and the baseline hearing threshold measured on day −3.
Furthermore, the effect of an intratympanic administration of polymorph B of 6-FMC (0.12 mg) prepared at least 48 h before use, on the PTS in guinea pigs is presented in FIG. 14.
General procedures: All in vivo proof of principle studies were performed in the well-established guinea pig model of NIHL. […] Hearing function was assessed by brain evoked response audiometry (BERA).
Methods: Adult guinea pigs received an intratympanic (i.t.) injection of either 6-FMC formulated in a thermosensitive hydrogel or hydrogel alone. All procedures were performed under anesthesia. BERA was used to measure auditory brainstem responses (ABRs) on day −3 and day 14. The auditory stimuli were sinus tones (10 ms duration at 4, 8, 16 kHz) at 5 dB steps from 0-90 dB. These measurements were used to calculate the PTS. The acoustic trauma was performed on day 0 and consisted of a single continuous band (quarter-octave centered at 8 kHz) at 118 dB SPL for 30 min. Animals were treated 1 h after the end of the acoustic exposure. The round window was visualized under a surgical microscope via a small hole drilled in the bone of the bulla of the left ear. 10 μL of gel containing either 6-FMC or vehicle was injected using a Hamilton syringe and a motorized pump onto the round window membrane (RWM) before the hole was closed with dental cement.
Formulation preparation: a non-ionic tenside based solution is prepared in advance, by dissolving an appropriate amount of the non-ionic tenside in water or in PBS buffer and allowing for an overnight mixing under refrigerated conditions. Once the non-ionic tenside is completely dissolved, osmolality and pH are adjusted if desired. Next the solution is filtered through a 500 μm sieve to remove undissolved gel particles. This concludes compounding of the vehicle. API (Active Pharmaceutical Ingredient) containing formulation is prepared by addition of micronized 6-FMC (≤50 μm) at a concentration of 12 mg/mL. For experiments presented in FIG. 13, 6-FMC formulation was applied directly after being prepared. For experiments in FIG. 14, 6-FMC formulation was prepared at least 48 h prior to animal experiments.

Data set [2] in a line: Polymorph stability under manufacturing processes. The class given is physicochemical. The settings on record: drying, milling, micronization, wet granulation, spray-drying, compaction. An excerpt:
Various dissolution/crystallization conditions have been applied to try to convert polymorph B into polymorph A. As mentioned above, only with sophisticated procedures polymorph B could be fully converted into polymorph A (Example 4). Polymorphic forms of a drug substance can undergo phase conversion when exposed to a range of manufacturing processes, such as drying, milling, micronization, wet granulation, spray-drying, and compaction. Exposure to environmental conditions such as humidity and temperature can also induce polymorph conversion. Therefore, polymorph A is unstable and thus not suited for pharmaceutical processes, while polymorph B was stable under all these conditions including drying, milling, micronization, wet granulation, spray-drying, and compaction.

Data set [3] in a line: Polymorph stability in poloxamer-based formulation (XRPD). The data set is classed as physicochemical. The settings on record: for conversion of polymorphic form A into polymorphic form B: XRPD. As to the method:
In a series of experiments, the polymorph stability has been analyzed. Micronized (≤20 μm) polymorphs A and B were added to phosphate buffer containing a non-ionic tenside as vehicle formulation. […]
2 mL of poloxamer based formulation with 12 mg/ml 6-FMC were cooled to 4° C., vortexed and transferred into a 2 mL Eppendorf vial. The cooled vial was centrifuged for 2 min with a table-centrifuge, the supernatant polymer solution was removed with a pipette and discarded. The remaining 6-FMC was resuspended and vortexed with 1.5 mL of ice cold milli-Q water and centrifuged down as described before. The supernatant water was again removed with a pipette and the washing procedure is repeated 3 times (in total 4 washings). Note: Keep the solution cool to facilitate the centrifugation process. After the last washing, the remaining white 6-FMC is cooled with liquid nitrogen and freeze dried overnight at 100 Pa at room temperature.
After 30 hours in formulation 60% of polymorphic form A is converted into polymorphic form B (see FIG. 10). Keeping the formulation for 48 hours or longer results in 100% conversion of polymorphic form A into polymorphic form B as shown in FIG. 11.

Data set [4] in a line: Polymorph conversion under various thermal conditions (polymorph B to polymorph A), XRPD. The class given is physicochemical. The method, then:
3-1: Polymorph B of 6-FMC was dissolved in n-heptane, the suspension was heated (100° C.) for 1:45 h under stirring. Then the suspension was cooled and stirred at room temperature for 15 hrs. The precipitate was filtered, washed with n-heptane and dried by air.
3-2: Polymorph B of 6-FMC was diluted in toluene and heated up to 95° C. and cooled down to room temperature. The precipitate was filtered, washed with toluene and dried in an air stream.
3-3: A suspension of polymorph B of 6-FMC was diluted in n-heptane and heated up to 110° C. It was kept for 5 hrs 18 min in a flask under reflux conditions, followed by gentle cooling down to room temperature, stirred for 16 hrs. The precipitate was filtered, washed with heptane and dried by air.
3-4: A suspension of polymorph B of 6-FMC was diluted in n-heptane and heated up to 108° C. until the substance was completely diluted. Seed crystals of polymorph A were added to the solution which was gentle cooled down to room temperature. The precipitate was filtered, washed with n-heptane and dried by air.

Data set [5] can be described thus: Polymorph conversion using supercritical CO2. The data set is classed as physicochemical. To be noted: 60° C., 350 bar (35 MPa), 2.5 h. The method, then: Extraction/polymorph conversion with supercritical CO2 was performed with 500 mg of crude, off-white polymorph B in an ExtrateX Rapid Expansion of a Supercritical Solution (REES) system. The extraction vessel was heated to 60° C. with a pressure of 350 bar. The nozzle was a stainless-steel capillary 5 cm length, inner diameter 0.25 mm at 70° C. The expansion vessel was heated to 40° C. at 1-5 Mpa. Equilibration time: 2.5 h; spraying-time: 15 min.
The cylinder of the apparatus in which the supercritical CO2 had been introduced was loaded with polymorph B (FIG. 9A) and heated to 60° C. and a pressure of 35 MPa. The time amounted to 2.5 hrs during which the API dissolved completely in the supercritical CO2.

A short description of data set [6]: Melting/cooling and vacuum sublimation of polymorph powders. The class given is physicochemical. The method, then: The polymorph B sample melted at ˜123° C. […] (FIG. 6B).
The mark [7] stands for this setting: day 14 vs day -3, listed as polymorphic form A.
[8] abbreviates: day 14 vs day -3, listed as polymorphic form B.

As to `Cn1c2ccc(F)cc2c2ccncc21` [polymorph A, 6-fluoro-9-methyl-9H-β-carboline], the “level of improvement of the PTS” value in data set [1] is reported as 10-18 dBs. Moreover, the “recovery of the PTS compared to vehicle treated animals” value in data set [1] (at 16 kHz) was 10-18 dBs. Moreover, in data set [1] (setting [7]), the “average PTS (threshold shift) in treated animals” value turned out to be 14.6 dB and the “average PTS reduction versus vehicle-treated controls” value amounted to 7.7 dB. In addition, the “stability under manufacturing processes” value in data set [2] is reported as “unstable”. Further, the “conversion of polymorphic form A into polymorphic form B” value in data set [3] (30 hours in poloxamer based formulation (phosphate buffer, non-ionic tenside), micronized) is reported as 60%. The “conversion of polymorphic form A into polymorphic form B” value in data set [3] (48 hours in poloxamer based formulation, listed as polymorphic A) stood at 100%.
With `Cn1c2ccc(F)cc2c2ccncc21` [polymorph B, 6-fluoro-9-methyl-9H-β-carboline], the “conversion of polymorph B into form A (XRPD)” value is on record as “did not reveal conversion into form A” in data set [4] (3-1: n-heptane, 100° C. for 1:45 h, then room temperature 15 hrs); “some presence of polymorph A” in data set [4] (3-2: toluene, heated to 95° C., cooled to room temperature, not reproducible); “unchanged polymorph B” in data set [4] (3-3: n-heptane, 110° C., reflux 5 hrs 18 min, cooled, stirred 16 hrs); “unchanged polymorph B” in data set [4] (3-4: n-heptane, 108° C., seed crystals of polymorph A added, cooled to room temperature). The “polymorph conversion in supercritical CO2” value in data set [5] is on record as “polymorph A is obtained; also recorded: transformation happened of polymorph B into polymorph A”. Besides, the “PTS at some frequencies” value in data set [1] (4 and 8 kHz (FIG. 14)) stood at 0. For the same compound, the “level of improvement of the PTS” value in data set [1] (listed as polymorphic form B) was 23-39 dBs. Moreover, the “average PTS (threshold shift) in treated animals” value in data set [1] (setting [8]) is on record as 0.6 dB. Also, the “average PTS reduction versus vehicle-treated controls” value in data set [1] (setting [8]) was found to be 34.1 dB. In addition, in data set [2], the “stability under manufacturing processes” value is “stable”. The “polymorph conversion in formulation” value is reported as “no conversion” in data set [3] (initially introduced polymorph B, after 30 h in formulation) and “no polymorph conversion” in data set [3] (sample initially made from polymorph B, regular intervals over several months). Also, in data set [6] (depending on duration of the melting status), the “polymorph conversion in the melt (diffractometry)” value is recorded as “up to a complete conversion”. Also, the “polymorph conversion on vacuum sublimation” value in data set [6] (vacuum sublimation at 1-2 kPa) is on record as “complete conversion into white crystals of polymorph A”.
